Results as given in PubChem BioAssay (NCI).
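Abbreviation: GI50, concentration required for 50% inhibition of growth. TGI denotes the concentration required for complete inhibition of growth.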

Tests used:
Experiment in all cases: DTP human tumour cell line panel, 384-well format
OVCAR-5 ovarian = system: OVCAR-5 ovarian
DU-145 prostate = system: DU-145 prostate
A549 NSCLC = system: A549 NSCLC
A498 renal = system: A498 renal
CCRF-CEM leukemia = system: CCRF-CEM leukemia
ACHN renal = system: ACHN renal
HCC-2998 colon = system: HCC-2998 colon
PC-3 prostate = system: PC-3 prostate
MCF7 breast = system: MCF7 breast
SF-539 CNS = system: SF-539 CNS
HCT-116 colon = system: HCT-116 colon
CAKI-1 renal = system: CAKI-1 renal
K-562 leukemia = system: K-562 leukemia
HCT-15 colon = system: HCT-15 colon
NCI-H460 NSCLC = system: NCI-H460 NSCLC
T-47D breast = system: T-47D breast
LOX IMVI melanoma = system: LOX IMVI melanoma
SF-295 CNS = system: SF-295 CNS
SK-OV-3 ovarian = system: SK-OV-3 ovarian
OVCAR-4 ovarian = system: OVCAR-4 ovarian
KM12 colon = system: KM12 colon
SN12C renal = system: SN12C renal
HS 578T breast = system: HS 578T breast
MDA-MB-435 melanoma = system: MDA-MB-435 melanoma
OVCAR-8 ovarian = system: OVCAR-8 ovarian
786-0 renal = system: 786-0 renal
M14 melanoma = system: M14 melanoma
HOP-92 NSCLC = system: HOP-92 NSCLC
NCI-H522 lung = system: NCI-H522 lung
SK-MEL-2 melanoma = system: SK-MEL-2 melanoma
TK-10 renal = system: TK-10 renal
NCI/ADR-RES ovarian = system: NCI/ADR-RES ovarian
SK-MEL-5 melanoma = system: SK-MEL-5 melanoma
MDA-MB-231 breast = system: MDA-MB-231 breast
HOP-62 NSCLC = system: HOP-62 NSCLC
UACC-62 melanoma = system: UACC-62 melanoma
UACC-257 melanoma = system: UACC-257 melanoma
SW-620 colon = system: SW-620 colon
BT-549 breast = system: BT-549 breast
NCI-H226 lung = system: NCI-H226 lung
COLO 205 colon = system: COLO 205 colon
RPMI-8226 leukemia = system: RPMI-8226 leukemia
SNB-19 CNS = system: SNB-19 CNS
EKVX NSCLC = system: EKVX NSCLC
SF-268 CNS = system: SF-268 CNS
SK-MEL-28 melanoma = system: SK-MEL-28 melanoma
NCI-H23 lung = system: NCI-H23 lung
NCI-H322M lung = system: NCI-H322M lung
SNB-75 CNS = system: SNB-75 CNS
MDA-MB-468 breast = system: MDA-MB-468 breast
MALME-3M melanoma = system: MALME-3M melanoma
IGROV1 ovarian = system: IGROV1 ovarian
HL-60(TB) leukemia = system: HL-60(TB) leukemia
RXF 393 renal = system: RXF 393 renal
MOLT-4 leukemia = system: MOLT-4 leukemia
HT29 colon = system: HT29 colon
OVCAR-3 ovarian = system: OVCAR-3 ovarian
UO-31 renal = system: UO-31 renal
U251 glioblastoma = system: U251 glioblastoma

CC(C)NC[C@@H](C(=O)N1CCN(c2ncnc3c2[C@H](C)C[C@H]3O)CC1)c1ccc(Cl)cc1
GI50 (OVCAR-5 ovarian): 18.4 µM
TGI (OVCAR-5 ovarian): > 100 µM
GI50 (DU-145 prostate): 25.8 µM
TGI (DU-145 prostate): > 100 µM
GI50 (A549 NSCLC): 18.2 µM
TGI (A549 NSCLC): > 100 µM
GI50 (A498 renal): 0.589 µM
TGI (A498 renal): 11.3 µM
GI50 (CCRF-CEM leukemia): 0.854 µM
TGI (CCRF-CEM leukemia): 12 µM
GI50 (ACHN renal): 25.1 µM
TGI (ACHN renal): > 100 µM
GI50 (HCC-2998 colon): 3.41 µM
TGI (HCC-2998 colon): 24.1 µM
GI50 (PC-3 prostate): 1.07 µM
TGI (PC-3 prostate): 35.4 µM
GI50 (MCF7 breast): 0.919 µM
TGI (MCF7 breast): 15.5 µM
GI50 (SF-539 CNS): 0.587 µM
TGI (SF-539 CNS): 22.5 µM
GI50 (HCT-116 colon): 18.2 µM
TGI (HCT-116 colon): 96.8 µM
GI50 (CAKI-1 renal): 11.7 µM
TGI (CAKI-1 renal): 75.5 µM
GI50 (K-562 leukemia): 25.4 µM
TGI (K-562 leukemia): > 100 µM
GI50 (HCT-15 colon): 26.2 µM
TGI (HCT-15 colon): > 100 µM
GI50 (NCI-H460 NSCLC): 1.31 µM
TGI (NCI-H460 NSCLC): > 100 µM
GI50 (T-47D breast): 0.119 µM
TGI (T-47D breast): 0.857 µM
GI50 (LOX IMVI melanoma): 34.5 µM
TGI (LOX IMVI melanoma): > 100 µM
GI50 (SF-295 CNS): 2.19 µM
TGI (SF-295 CNS): 32.7 µM
GI50 (SK-OV-3 ovarian): 0.912 µM
TGI (SK-OV-3 ovarian): 23.6 µM
GI50 (OVCAR-4 ovarian): 76.8 µM
TGI (OVCAR-4 ovarian): > 100 µM
GI50 (KM12 colon): 1.45 µM
TGI (KM12 colon): 18.8 µM
GI50 (SN12C renal): 23.8 µM
TGI (SN12C renal): > 100 µM
GI50 (HS 578T breast): 0.771 µM
TGI (HS 578T breast): 14.6 µM
GI50 (MDA-MB-435 melanoma): 23.9 µM
TGI (MDA-MB-435 melanoma): > 100 µM
GI50 (OVCAR-8 ovarian): 45.9 µM
TGI (OVCAR-8 ovarian): > 100 µM
GI50 ([…]-0 renal): 1.49 µM
TGI (786-0 renal): 21 µM
GI50 (M14 melanoma): 14.4 µM
TGI (M14 melanoma): 34 µM
GI50 (HOP-92 NSCLC): 11.7 µM
TGI (HOP-92 NSCLC): 46.1 µM
GI50 (NCI-H522 lung): 17 µM
TGI (NCI-H522 lung): 49.3 µM
GI50 (SK-MEL-2 melanoma): 11.2 µM
TGI (SK-MEL-2 melanoma): 24.5 µM
GI50 (TK-10 renal): 5.49 µM
TGI (TK-10 renal): 36.9 µM
GI50 (NCI/ADR-RES ovarian): > 100 µM
TGI (NCI/ADR-RES ovarian): > 100 µM
GI50 (SK-MEL-5 melanoma): 12 µM
TGI (SK-MEL-5 melanoma): 25.2 µM
GI50 (MDA-MB-231 breast): 44.9 µM
TGI (MDA-MB-231 breast): > 100 µM
GI50 (HOP-62 NSCLC): 34.1 µM
TGI (HOP-62 NSCLC): > 100 µM
GI50 (UACC-62 melanoma): 10.9 µM
TGI (UACC-62 melanoma): 30.4 µM
GI50 (UACC-257 melanoma): 14 µM
TGI (UACC-257 melanoma): 27.1 µM
GI50 (SW-620 colon): 49.9 µM
TGI (SW-620 colon): > 100 µM
GI50 (BT-549 breast): 0.636 µM
TGI (BT-549 breast): 11.8 µM
GI50 (NCI-H226 lung): 21.2 µM
TGI (NCI-H226 lung): > 100 µM
GI50 (COLO 205 colon): 4.88 µM
TGI (COLO 205 colon): 24.5 µM
GI50 (RPMI-8226 leukemia): 10.5 µM
TGI (RPMI-8226 leukemia): 23.9 µM
GI50 (SNB-19 CNS): 7.47 µM
TGI (SNB-19 CNS): > 100 µM
GI50 (EKVX NSCLC): 10.6 µM
TGI (EKVX NSCLC): 52.4 µM
GI50 (SF-268 CNS): 29.6 µM
TGI (SF-268 CNS): > 100 µM
GI50 (SK-MEL-28 melanoma): 11.4 µM
TGI (SK-MEL-28 melanoma): 41.7 µM
GI50 (NCI-H23 lung): 16.2 µM
TGI (NCI-H23 lung): 57.1 µM
GI50 (NCI-H322M lung): 18.4 µM
TGI (NCI-H322M lung): > 100 µM
GI50 (SNB-75 CNS): 0.676 µM
TGI (SNB-75 CNS): 15.3 µM
GI50 (MDA-MB-468 breast): 0.494 µM
TGI (MDA-MB-468 breast): 4.16 µM
GI50 (MALME-3M melanoma): 7.94 µM
TGI (MALME-3M melanoma): 21.6 µM
GI50 (IGROV1 ovarian): 0.235 µM
TGI (IGROV1 ovarian): 2.69 µM
GI50 (HL-60(TB) leukemia): 17.3 µM
TGI (HL-60(TB) leukemia): 31.2 µM
GI50 (RXF 393 renal): 0.3 µM
TGI (RXF 393 renal): 4.41 µM
GI50 (MOLT-4 leukemia): 0.259 µM
TGI (MOLT-4 leukemia): 1.77 µM
GI50 (HT29 colon): 15.1 µM
TGI (HT29 colon): 52.5 µM
GI50 (OVCAR-3 ovarian): 10.5 µM
TGI (OVCAR-3 ovarian): 64.5 µM
GI50 (UO-31 renal): 35 µM
TGI (UO-31 renal): > 100 µM
GI50 (U251 glioblastoma): 10.2 µM
TGI (U251 glioblastoma): > 100 µM
